Experimental data as given in US20140045823A1 (Neurocrine Biosciences, Inc., priority 2012, published 2014).

The compounds below were run against T1, human GPR119 (Homo sapiens, UniProt Q8TDV5) (assay: AlphaScreen cAMP assay in MIN6 cells stably transfected with human GPR119). Settings: Min-6/hGPR119 cells, 45 min at room temperature.
T1 construct: expression vector for human GPR119 cDNA (Acc. No. NP_848566); expressed in transfected cells; Min-6/hGPR119
T1 sequence (Q8TDV5 1-335): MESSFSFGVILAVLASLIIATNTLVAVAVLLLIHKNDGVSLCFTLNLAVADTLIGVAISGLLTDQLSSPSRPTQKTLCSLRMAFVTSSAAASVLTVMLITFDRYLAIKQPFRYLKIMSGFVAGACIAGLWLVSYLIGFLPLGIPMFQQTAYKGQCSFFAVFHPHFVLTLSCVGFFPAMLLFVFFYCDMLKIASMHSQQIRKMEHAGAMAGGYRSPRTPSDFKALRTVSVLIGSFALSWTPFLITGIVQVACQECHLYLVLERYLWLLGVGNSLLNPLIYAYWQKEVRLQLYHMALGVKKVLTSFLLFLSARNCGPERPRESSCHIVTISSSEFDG
Format: cell-based
Protocol: The compounds of formula I according to the invention modulate the activity of the G-protein-coupled receptor GPR119. The effect of the compounds on the activation of GPR119 and on the stimulation of intracellular cAMP concentration is determined using the AlphaScreen cAMP Assay Kit (Cat. No. #6760625R) made by PerkinElmer.
MIN6 cells [Miyazaki J et al. Endocrinology. 1990 July; 127(1):126-32] are stably transfected with an expression vector for human GPR119 cDNA (Acc. No. NP_848566). Min-6/hGPR119 cells are cultured in DMEM, 10% FBS, 50 μM β-mercaptoethanol, 0.3 mg/mL Geniticin, 2 mM GlutaMAX at 37° C. 5% CO2. For the assay, the cells are seeded in Optiplates (white, 384-well, 160 W—barcoded, TC, sterile with lid, Cat. No. #6007688 (Perkin Elmer); 10000 cells/well; 50 μl). The plates covered with lids are then incubated for 24 hours at 37° C./5% CO2. After the medium is aspirated from the wells completely, 10 μl of the test compound are added, the compounds are diluted using stimulating buffer (140 mM NaCl, 3.6 mM KCl, 0.5 mM NaH2PO4, 0.5 mM MgSO4, 1.5 mM CaCl2, 10 mM Hepes, 5 mM NaHCO3; pH 7.4. 0.5 mM IBMX and 0.1% BSA, the final DMSO concentration is 1%). After 45 minutes incubation at room temperature (approx. 20° C.), the cAMP concentrations are determined using the AlphaScreen cAMP Assay Kit (Cat. No. #6760625R from PerkinElmer).

Row | EC50 | SMILES
1 | 261 nM | CC(C)(C)OC(=O)N1CCC(N(C(=O)c2cnc(-c3ccc(C(=O)NC[C@H]4CCCC[C@H]4O)c(F)c3)nc2)C2CC2)CC1 (stereo in doubt) [Example 168, 4-[Cyclopropyl-(2-{3-fluoro-4-[(2-hydroxy-cyclohexylmethyl)-carbamoyl]-phenyl}-pyrimidine-5-carbonyl)-amino]-piperidine-1-carboxylic acid tert-butyl ester]
2 | 82 nM | CC(C)(C)OC(=O)N1CCC(N(C(=O)c2ccc(-c3ccc(S(C)(=O)=O)cc3)nc2)C2CC2)CC1 [Example 1, 4-{Cyclopropyl-[6-(4-methanesulfonyl-phenyl)-pyridine-3-carbonyl]-amino}-piperidine-1-carboxylic acid tert-butyl ester]
3 | 213 nM | CC(C)OC(=O)N1CCC(N(C(=O)c2ccc(-c3ccc(S(C)(=O)=O)cc3)nc2)C2CC2)CC1 [Example 2, 4-{Cyclopropyl-[6-(4-methanesulfonyl-phenyl)-pyridine-3-carbonyl]-amino}-piperidine-1-carboxylic acid isopropyl ester]
4 | 204 nM | CC(C)(C)OC(=O)N1CCC(N(C(=O)c2ccc(-c3cn[nH]c3)nc2)C2CC2)CC1 [Example 3, 4-{Cyclopropyl-[6-(1H-pyrazol-4-yl)-pyridine-3-carbonyl]-amino}-piperidine-1-carboxylic acid tert-butyl ester]
5 | 1460 nM | Cn1cc(-c2ccc(C(=O)N(C3CC3)C3CCN(C(=O)OC(C)(C)C)CC3)cn2)ccc1=O [Example 4, 4-[Cyclopropyl-(1′-methyl-6′-oxo-1′,6′-dihydro-[2,3′]bipyridinyl-5-carbonyl)-amino]-piperidine-1-carboxylic acid tert-butyl ester]
6 | 62 nM | CC(C)(C)OC(=O)N1CCC(N(C(=O)c2ccc(-c3cnco3)nc2)C2CC2)CC1 [Example 5, 4-[Cyclopropyl-(6-oxazol-5-yl-pyridine-3-carbonyl)-amino]-piperidine-1-carboxylic acid tert-butyl ester]
7 | 1300 nM | CC(C)(C)OC(=O)N1CCC(N(C(=O)c2ccc(-c3cnco3)nn2)C2CC2)CC1 [Example 6, 4-[Cyclopropyl-(6-oxazol-5-yl-pyridazine-3-carbonyl)-amino]-piperidine-1-carboxylic acid tert-butyl ester]
8 | 1200 nM | CC(C)(C)OC(=O)N1CCC(N(C(=O)c2ncc(-c3cnco3)cn2)C2CC2)CC1 [Example 7, 4-[Cyclopropyl-(5-oxazol-5-yl-pyrimidine-2-carbonyl)-amino]-piperidine-1-carboxylic acid tert-butyl ester]
9 | 120 nM | CC(C)(C)OC(=O)N1CCC(N(C(=O)c2ccc(-c3cnco3)cn2)C2CC2)CC1 [Example 8, 4-[Cyclopropyl-(5-oxazol-5-yl-pyridine-2-carbonyl)-amino]-piperidine-1-carboxylic acid tert-butyl ester]
10 | 224 nM | CC(C)(C)OC(=O)N1CCC(N(C(=O)c2cnc(-c3cnco3)nc2)C2CC2)CC1 [Example 9, 4-[Cyclopropyl-(2-oxazol-5-yl-pyrimidine-5-carbonyl)-amino]-piperidine-1-carboxylic acid tert-butyl ester]
11 | 748 nM | Cc1cc(C(=O)N(C2CC2)C2CCN(C(=O)OC(C)(C)C)CC2)cnc1-c1cnco1 [Example 10, 4-[Cyclopropyl-(5-methyl-6-oxazol-5-yl-pyridine-3-carbonyl)-amino]-piperidine-1-carboxylic acid tert-butyl ester]
12 | 136 nM | Cc1noc(C)c1-c1ccc(C(=O)N(C2CC2)C2CCN(C(=O)OC(C)(C)C)CC2)cn1 [Example 11, 4-{Cyclopropyl-[6-(3,5-dimethyl-isoxazol-4-yl)-pyridine-3-carbonyl]-amino}-piperidine-1-carboxylic acid tert-butyl ester]
13 | 72 nM | CC(C)(C)OC(=O)N1CCC(N(C(=O)c2cnc(-c3cnco3)cn2)C2CC2)CC1 [Example 12, 4-[Cyclopropyl-(5-oxazol-5-yl-pyrazine-2-carbonyl)-amino]-piperidine-1-carboxylic acid tert-butyl ester]
